Results as given in article PMC9967275, “Screening the Pathogen Box to Discover and Characterize New Cruzain and TbrCatL Inhibitors” (Pathogens, 2023).

Tests used:
cruzain = cruzain (Trypanosoma cruzi, UniProt P25779); test: biochemical; conditions: for Cruzain 0’ Inhibition / Cruzain 10’ Inhibition: sheet "Screening results"
Summary of the method: (§1)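 Recombinant enzymes assayed by Z-Phe-Arg-AMC cleavage at 25 °C, fluorescence 340/440 nm over 5–7 min, with 10 min or no enzyme–compound preincubation.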

TbrCatL = molecular target: T1, TbrCatL (Trypanosoma brucei rhodesiense, UniProt Q95PM0); test: TbrCatL enzymatic inhibition assay (cleavage of fluorogenic substrate Z-FR-AMC); type: biochemical; conditions: for TbrCatL 0’ Inhibition / TbrCatL 10’ Inhibition: sheet "Screening results"
T1 construct: Conor Caffrey (University of California San Diego)
T1 sequence (Q95PM0 entry or part of it): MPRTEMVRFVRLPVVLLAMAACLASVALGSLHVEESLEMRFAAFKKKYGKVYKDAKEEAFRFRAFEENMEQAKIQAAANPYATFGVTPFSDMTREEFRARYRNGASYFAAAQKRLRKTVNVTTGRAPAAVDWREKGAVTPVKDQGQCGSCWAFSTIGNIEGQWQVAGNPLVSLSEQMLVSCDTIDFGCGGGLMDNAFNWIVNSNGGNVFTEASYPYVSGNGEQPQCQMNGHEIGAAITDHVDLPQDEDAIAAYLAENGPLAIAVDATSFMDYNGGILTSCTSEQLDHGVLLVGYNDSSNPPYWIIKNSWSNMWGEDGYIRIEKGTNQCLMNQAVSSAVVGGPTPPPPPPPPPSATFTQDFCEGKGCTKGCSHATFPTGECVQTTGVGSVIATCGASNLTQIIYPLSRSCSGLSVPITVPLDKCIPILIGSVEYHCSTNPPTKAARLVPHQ
Summary of the method: as §1

[1] = 0’ (no pre-incubation), sheet Screening results
[2] = 10’ (pre-incubation), sheet Screening results
[3] = 0’ (pre-incubation time), Pathogen Box screening results
[4] = 10’ (pre-incubation time), Pathogen Box screening results
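Note: at 5 µM compound concentration.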

cruzain, sequence (P25779 123-337 limits assumed): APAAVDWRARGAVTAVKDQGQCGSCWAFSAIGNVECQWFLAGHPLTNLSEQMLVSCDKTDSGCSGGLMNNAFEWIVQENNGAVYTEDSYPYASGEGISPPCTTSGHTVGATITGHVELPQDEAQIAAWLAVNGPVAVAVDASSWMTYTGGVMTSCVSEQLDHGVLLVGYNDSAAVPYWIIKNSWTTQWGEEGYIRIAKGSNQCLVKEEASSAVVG

SMILES | Cruzain Inhibition 0’ (cruzain; [1]) | Cruzain Inhibition 10’ (cruzain; [2]) | TbrCatL Inhibition 0’ (TbrCatL; [1]) | TbrCatL Inhibition 10’ (TbrCatL; [2]) | Cruzain 0’ Inhibition (cruzain; 0’ (pre-incubation time)) | Cruzain 10’ Inhibition (cruzain; 10’ (pre-incubation time)) | TbrCatL 0’ Inhibition (TbrCatL; 0’ (pre-incubation time)) | TbrCatL 10’ Inhibition (TbrCatL; 10’ (pre-incubation time)) | further results
O=C(Nc1nnc(-c2ccc(Cl)cc2)o1)c1cccc(C(F)(F)F)c1 [MMV102872] | -1.6% | -10% | 0.5% | -16% |  |  |  |  | 
CO/C=C(\C(=O)OC)c1ccccc1Oc1cc(Oc2ccccc2C#N)ncn1 [MMV021057] | 1.6% | 6.5% | 1.9% | 9% |  |  |  |  | 
COc1cccc(OCC(=O)c2ccc(Br)cc2)c1 [MMV676379] | 8% | 14% | 9% | 20% |  |  |  |  | 
Nc1ncc(Br)cc1-c1nc2cc(Cl)cnc2[nH]1 [MMV676358] |  |  |  |  | -2.8% | 8% | -9% | -2.5% | 
CC(C)N=c1cc2n(-c3ccc(Cl)cc3)c3ccccc3nc-2cc1Nc1ccc(Cl)cc1 [MMV687800] | 23% | 10% | 1.1% | 3% |  |  |  |  | 
Brc1c(-c2ccc3c(c2)OCO3)nc2ncccn12 [MMV676377] | 1.2% | -0.9% | 5% | -1.8% |  |  |  |  | 
CCCCN(CCCC)c1c(C#N)cc(S(=O)(=O)Nc2ccccc2)cc1C#N [MMV688467] |  |  |  |  | -2.2% | 1.8% | -4.5% | 8% | 
Cc1ccc2[nH]c(C3CCCNC3)c(-c3ccncc3)c2c1 (centres unmarked) [MMV024311] |  |  |  |  | -7.4% | 15% | -12% | 12% | 
CCN(CC)S(=O)(=O)c1ccc(Cl)c(C(=O)Nc2ccc3nc(C)sc3c2)c1 [MMV019721] | 6.4% | 6.4% | 5% | -2.6% |  |  |  |  | 
O=C(NCc1nnc2n1CCCCC2)c1ccc(-c2ccc(F)cc2)o1 [MMV688796] | 15% | 7% | 7% | -2.4% |  |  |  |  | 
O=[N+]([O-])c1cn2c(n1)OC[C@@H](OCc1ccc(OC(F)(F)F)cc1)C2 [MMV688755] |  |  |  |  |  |  |  |  | Cruzain Inhibition 0’ (cruzain; [3]): 3%; Cruzain Inhibition 10’ (cruzain; [4]): 6.6%; TbrCatL Inhibition 0’ (TbrCatL; [3]): -0.5%; TbrCatL Inhibition 10’ (TbrCatL; [4]): 4%
Cc1cc(C)c2cc(C(=O)NC3CCCCCCC3)[nH]c2c1 [MMV687146] |  |  |  |  | 4.7% | 4.7% | -1.1% | -12% | 
CC(=O)OC[C@H]1O[C@@H]([S-])[C@H](OC(C)=O)[C@@H](OC(C)=O)[C@@H]1OC(C)=O.CC[PH+](CC)CC.[Au] [MMV688978] |  |  |  |  |  |  |  |  | Cruzain Inhibition 0’ (cruzain; [3]): -20%; Cruzain Inhibition 10’ (cruzain; [4]): -71%; TbrCatL Inhibition 0’ (TbrCatL; [3]): -13%; TbrCatL Inhibition 10’ (TbrCatL; [4]): -63%
Cc1ccc(Oc2ccc(NC(=O)CNc3ccccc3N3CCCC3=O)cc2)cc1 [MMV020512] | 0.2% | 8% | -3.2% | -0.2% |  |  |  |  | 
CN(C)c1cc(NC(=O)Nc2ccccc2)c2ccccc2n1 [MMV006901] | 13% | 24% | 9% | 20% |  |  |  |  | 
CCCCOC(=O)Nc1cc2[nH]c(C3CCCCC3)nc2cc1N1CCCC1 [MMV687730] |  |  |  |  | 12% | 4.4% | 19% | 12% | 
N=C(N)c1ccc(OCCCCCOc2ccc(C(=N)N)cc2)cc1 [MMV000062] | 19% | 13% | 3% | -3% |  |  |  |  | 
CCN(CC)CCCN1CCN(C(=O)c2cccc(-c3noc(C(F)(F)F)n3)c2)CC1 [MMV022236] |  |  |  |  | 7% | 16% | 7.4% | 16% | 

SMILES | Cruzain Inhibition 0’ (cruzain; [1]) | Cruzain Inhibition 10’ (cruzain; [2]) | TbrCatL Inhibition 0’ (TbrCatL; [1]) | TbrCatL Inhibition 10’ (TbrCatL; [2]) | Cruzain 0’ Inhibition (cruzain; 0’ (pre-incubation time)) | Cruzain 10’ Inhibition (cruzain; 10’ (pre-incubation time)) | TbrCatL 0’ Inhibition (TbrCatL; 0’ (pre-incubation time)) | TbrCatL 10’ Inhibition (TbrCatL; 10’ (pre-incubation time)) | further results
CCOc1ccc(-c2nc(NC(=O)CS(=O)(=O)c3ccccc3)sc2C)cc1 [MMV007638] | 7% | 10% | 0.6% | 9% |  |  |  |  | 
C[C@H](C(N)=O)N1CCCC[C@H]1c1ccc(OCc2cccc(F)c2)cc1 [MMV676269] |  |  |  |  | 0.4% | 2% | -3% | -4.7% | 
CC(C)c1ncc(-c2ccncc2)c(C2CCC(CNC(=O)c3cccnc3)CC2)n1 (centres unmarked) [MMV676442] | 4% | 1.2% | -7.5% | -6% |  |  |  |  | 
Cc1nc2ccccn2c1C(=O)NCc1ccc(Cl)cc1 [MMV012074] | 25% | 12% | -0.2% | 5.6% |  |  |  |  | 
CC[C@@H]([C@H](C)O)n1ncn(-c2ccc(N3CCN(c4ccc(OC[C@@H]5CO[C@@](Cn6cncn6)(c6ccc(F)cc6F)C5)cc4)CC3)cc2)c1=O [MMV688774] | 9% | 10% | 3.6% | 8% |  |  |  |  | 
O=C(Nc1ccc(N2CCNCC2)nc1)c1oc(-c2ccccc2)nc1C(F)(F)F [MMV024937] |  |  |  |  | 5.6% | 14% | 20% | 23% | 
CC(C)(C)CN1C(=O)C(c2ccccc2)(c2ccccc2)N=C1N [MMV026550] |  |  |  |  | 0% | 2.8% | -5% | 0.2% | 
Clc1ccc(CN2CCN(C3=NCCN3)CC2)cc1Cl [MMV689060] | -3% | -0.1% | -5% | 2% |  |  |  |  | 
N#Cc1ccc(-c2ccc(OCC(N)=O)cc2)cc1 [MMV053220] | -9% | -5% | -5.7% | -7% |  |  |  |  | 
OCCc1ccc(Nc2nccc(-c3nnc4ccccn34)n2)cc1 [MMV028694] |  |  |  |  | 7% | 14% | 8% | 13% | 
CC(C)(C)OC(=O)N1CCN(c2nccc(-c3ccc(-c4ccc(Cl)cc4)s3)n2)CC1 [MMV688416] | 18% | 18% | 22% | 27% |  |  |  |  | 
Cc1cc(C)n(-c2ccc(NC(=O)C3CCN(Cc4cnc(C)s4)CC3)cc2)n1 [MMV007625] |  |  |  |  | 5% | 1.6% | 1.5% | -1.8% | 
Cc1ccc(NC(=O)CC2COc3ccccc3O2)cc1Cl (centres unmarked) [MMV676431] | 0.5% | 4.3% | 5% | 5% |  |  |  |  | 
Cc1nc(-c2ccccn2)nc(N(C)CCc2ccccc2)c1Cl [MMV658988] |  |  |  |  |  |  |  |  | Cruzain Inhibition 0’ (cruzain; [3]): -3%; Cruzain Inhibition 10’ (cruzain; [4]): 14%; TbrCatL Inhibition 0’ (TbrCatL; [3]): -5.5%; TbrCatL Inhibition 10’ (TbrCatL; [4]): 10%
NCC(=O)N1CCn2c(nc(-c3ccccc3)c2Nc2ccc3c(c2)OCO3)C1 [MMV011691] |  |  |  |  | 1.8% | -3.4% | -1.7% | 1.3% | 
O=C(Nc1ccc2c(c1)B(O)OC2)c1ccccc1C(F)(F)F [MMV652003] | 22% | 16% | -5.6% | -1.7% |  |  |  |  | 
O=C(Nc1ccccc1-c1nc2c(C(=O)O)cccc2o1)c1ccccc1 [MMV676162] |  |  |  |  | 8% | 9% | 2.6% | 6% | 
